Measured values from patent US12465618B2, “Compositions and methods for degenerative disc regeneration” (University Health Network, priority 2015, dated 2025).

Assays:
[1] = tested on: human degenerative disc NP cells; assay: Caspase 9 Lumi-Glo assay, cytokine induced; format: cell-based; details: 48 hrs
Procedure: Apoptosis induced in NP cells (rat and human) as result of treatment with pro-inflammatory cytokines (IL-1β and TNFα) was determined using Caspase 3/7 and Caspase 9 specific Lumi-Glo assays (Promega, Madison). Briefly, NP cells were plated and treated with either IL-1β alone or in combination with TNFα only or in presence of CTGF and TGFβ1 for 48 hrs, followed by addition of specific reagents for Caspase 3/7 and Caspase 9 as per the manufacturer's instructions. Cells were incubated for another 4 hrs at 37° C., and plates were read in a multi-well luminescence plate reader.

[2] = tested on: rat-tail injured disc NPs; assay: Pre-clinical rodent needle puncture disc injury model of DDD, intra-discal injection; format: in vivo, Wistar rat
Procedure: 12-week old female Wistar rats (Charles River Laboratories International, Inc., MA, USA) were used in order to develop a pre-clinical rodent model of DDD and to evaluate the therapeutic potential of NCCM, CTGF and TGFβ1 in these pre-clinical rodent models. Experiments were performed in accordance with the Guide for the Care and Use of Laboratory Animals, and the experimental protocols were approved by the ethics approval board of Toronto Western Hospital, Toronto, ON, Canada. The surgical procedure was as follows: Anesthesia was achieved using isofluorane (5 L/min plus 1 L/min O2) and maintained at 3 L/min. Once deeply anaesthetized, the animal was affixed on a stereotactic procedure apparatus (Model 900, Kopf Instruments California USA) with nose cone inhalation. For animal experiments, the tail was shaved and prepped with isopropanol in a sterile manner. Fluoroscopy was used to visualize needle penetration and to ensure that the needle penetrated into the center of the NP. For disc injury, a 26-gauge (G), 35° beveled, 0.75 inches high needle (Hamilton Company, USA) mounted on a Hamilton syringe was used. The needle was advanced completely through the selected tail IVD to penetrate the full thickness inclusive of the annulus fibrosus on both sides of the disc. Confirmation of needle placement was made using fluoroscopy and maintained in position for 2 minutes, withdrawn halfway to the center of the NP and left there for 1 minute and then slowly withdrawn completely over a 1-minute period. The animals were then removed from the stereotactic apparatus and allowed to recover in a warmed cage. At the end of study period i.e. 72 hrs-10 weeks, animals were humanely euthanized using CO2 and each vertebral lumbar/caudal motion segment was dissected aseptically. IVDs were either fixed in formalin for histological analysis or the nucleus pulposus (healthy/injured) was harvested and lysed in RIPA buffer (50 mM Tris, pH=7.4, 150 mM NaCl, 1% NP-40 and protease inhibitor cocktail) for western blotting.
To determine the regenerative potential of NCCM, CTGF or TGFβ1, 4 IVDs per animal of 12 week old rats were injured using a 26G needle as described above. Four weeks post-injury, animals were randomized into groups of six and an intra-discal injection (˜8 μL) of either NCCM, CTGF (100 ng/mL) or TGFβ1 (10 ng/mL) was given under local anesthesia. For NCCM injected animals, the control group consisted of animals that received an intra-discal injection (˜8 μL) of Hybridoma culture medium only, while phosphate buffered saline (PBS, 1×, pH=7.2) served as control for CTGF and TGFβ1 injected animal groups. Six weeks later, the NPs from injured and control discs were harvested and either fixed in formalin for histological analysis or lysed in RIPA lysis buffer for western blotting. Each of this experiment was repeated independently to ensure reproducibility.
The tissues were fixed in 10% formalin and decalcified in 10% EDTA solution. The decalcified disc was initially split in the mid sagittal plane, embedded in paraffin and 5p thick sections were obtained for histological evaluation. Hemaetoxylin and eosin (H&E) and Safranin-O staining was performed to assess general morphology and proteoglycan content in these tissue sections as previously described^16. For immunohistochemistry/immunofluorescence (IF), paraffin-embedded sections (5 μm) of human degenerative disc NP, bovine NP, healthy canines (NCD) and rat (healthy/injured) discs were deparaffinized in xylene, hydrated in gradient alcohol followed by antigen retrieval in Tris-EDTA buffer (pH=9.0). The sections were incubated with hydrogen peroxide (0.3% v/v) in methanol for 15 minutes to quench the endogenous peroxidase activity, followed by blocking with 10% serum to preclude non-specific binding. Thereafter, the slides were incubated with either rabbit or goat polyclonal/mouse monoclonal primary antibodies overnight (O/N) at 4° C. […]

[3] = tested on: rat NP cells (healthy/injured); assay: BrdU-ELISA cell proliferation assay; format: cell-based; details: rat-tail (healthy/injured) NP cells, 72 hrs
Procedure: (§1) Nucleus pulposus cells (rat, bovine and human) were plated in 96-well flat bottom plates in order to evaluate the effect of treatment with growth factors in cell viability and proliferation assays. Rat NP cells were treated with CTGF, WISP-2 and TGFβ1 in a dose (1 ng/mL-100 ng/mL) and time dependent manner (24 hrs-96 hrs) to determine the optimum dose and time for the assessment of these growth factors on viability. Cell viability was determined using 3-(4,5-dimethylthiazol-2-yl)-2,5-diphenyltetrazolium bromide (MTT, Sigma-Aldrich, USA) as previously described^44. A BrdU-ELISA (colorimetric) assay (Cat #ab126556, Abcam) was used for determining the effect of treatment with CTGF or TGFβ1 on human and rat NP cells (healthy/injured) following the manufacturer's instructions. Briefly, NP cells were treated with CTGF or TGFβ1 alone or in combination for 48 hrs following addition of BrdU reagent O/N in each well. Incorporated BrdU in DNA of proliferating cells was determined using anti-BrdU antibody and quantified by ELISA as per the manufacturer's instructions.

[4] = tested on: human degenerated disc NP cells; assay: BrdU-ELISA cell proliferation assay; format: cell-based; details: 72 hrs
Procedure: as §1

[5] = tested on: human degenerative disc NP cells; assay: qRT-PCR with gene specific primers; format: cell-based; details: human degenerated disc NP cells, real time PCR
Procedure: Total RNA from healthy and treated (IL-1β alone or in combination with TNFα) rat NP cells, were isolated using RNAeasy extraction kit (Cat #74134, Qiagen) and quantified using a Nanodrop spectrophotometer. Total RNA (˜400 ng) was reverse-transcribed using RT^2 First Strand Kit (Cat #330401, Qiagen) following the manufacturer's instructions for preparing cDNA. To evaluate the effect of IL-1β alone or in combination with TNFα on extra-cellular matrix (ECM) genes in rat NP cells, the RT^2 Profiler™ PCR Array Rat Extracellular Matrix & Adhesion Molecules (PARN-013Z, Qiagen) was used and compared with no treatment controls (NTC) in 3 independent experiments using real time PCR performed on ABI 7900HT 384-well Fast block machine. Data analysis including calculation of ΔΔCt values, fold changes and p-values was carried out using software available online (https://www.qiagen.com/ca). Total RNA was isolated from human degenerative disc NP cells (H1/H2) treated with CTGF, TGFβ1, CTGF+TGFβ1 to evaluate their effect on collagen 2, HAPLN1, versican and thrombospondin 1 using gene specific primers. Similarly, RNA was isolated from human NP cells were treated with […] alone or in combination TNFα in presence of CTGF and TGFβ1 to determine their effect on Cox2 and MMP-13 expression using qRT-PCR.

[6] = rat tail injured discs, western blots, FIG. 12(b)

For “TGFβ1: Human recombinant transforming growth factor beta 1, Peprotech cat #100-21, identified in NCCM”, the “IL-1β and TNFα induced caspase 9 activity” value [1] was “significant reduction”, the “aggrecan and collagen II (immunohistochemical analysis)” value ([2]; intra-discal injection four weeks following injury, 10 weeks post-injury, vs vehicle control) was “strong expression” and the “histological analysis, Safranin-O staining of NP” value ([2]; intra-discal injection four weeks following injury, CTGF 100 ng/mL, TGFβ1 10 ng/mL, 10 weeks post-injury, vs PBS) was “healthy disc, rich in NCs”. The “expression of MMP-13 and Cox2 in NP tissue lysates” value [2, 6] was “decreased expression”, the “stem cell marker Oct4 in NP tissue lysates” value [2, 6] was “restoration” and the “DNA synthesis (BrdU incorporation)” value [3] was “Significant increase”. The “DNA synthesis (BrdU incorporation)” value [4] was “Significant increase” and the “mRNA levels of collagen 2, HAPLN1, versican and thrombospondin1 (THBS1)” value [5] was “Increased mRNA levels”.
